According to PubChem BioAssay (NCI):
Values joined by “and” are separate entries in the source; they are usually repeats but may differ in a detail not shown here. Equal entries are not always repeated.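 In this assay, cells in 96-well plates receive the compound at five concentrations for 48 hours. Endpoints are linearly interpolated between the surrounding concentrations. At the GI50, growth is halved. TGI is the concentration that stops growth completely.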

Tested on: HOP-62 NSCLC
Test: DTP human tumour cell line panel, 48 h

**Q.** Which results are given for COc1cc(/C=C/C(=O)CC(=O)/C=C/c2cc(OC)c(OC)c(OC)c2)cc(OC)c1OC?
**A.** GI50: 4.45 µM; TGI: 27.7 µM

**Q.** For c1ccc2c(c1)CCC/C2=N\OCC1CO1 (stereo not given), which TGI is on record?
**A.** > 100 µM

**Q.** Which TGI does the source give for CC/C(C)=C1\CCC(CN2CCOCC2)C1=O (stereo not given) here?
**A.** 40.2 µM

**Q.** How did the TGI turn out when COC(=O)C1C(C(=O)OC)C2(OC)c3ccccc3-c3ccccc3C12 (stereo not given) was run?
**A.** > 100 µM

**Q.** Which TGI does the source give for O=C1OC(CC(=O)c2ccc(Cl)c(Cl)c2)C(Cl)=C1Cl (stereo not given) here?
**A.** > 100 µM

**Q.** For CC(=O)c1cccc(N2COC(C)(C)c3nc4ccccc4n3C2)c1, which TGI is on record?
**A.** > 100 µM

**Q.** With O=[N+]([O-])c1cccc(C2N3CCCCC3[C@@H]3c4[nH]c5ccccc5c4CCN23)c1 (stereo not given in full) as the molecule, how does the TGI read?
**A.** 30.2 µM

**Q.** O=[N+]([O-])c1cc(Cl)c(Cl)c([N+](=O)[O-])c1Cl was tested. Which GI50 did it give?
**A.** 1.82 µM

**Q.** And the TGI?
**A.** 3.25 µM

**Q.** Cc1c[nH]c2c(O)cc3c(c12)[C@H](CCl)CN3C(=O)c1cc2cc(NC(=O)Nc3ccc4[nH]c(C(=O)N5C[C@@H](CCl)c6c5cc(O)c5[nH]cc(C)c65)cc4c3)ccc2[nH]1 was tested. Which TGI did it give?
**A.** 18.9 µM and 8.9e-07 µg/mL and 0.000888 µg/mL

**Q.** Which TGI does the source give for CCOC(=O)NC(=O)c1cn(CC(=O)NCC(=O)NCC(=O)NCCCN2CCN(CCCNC(=O)CNC(=O)CNC(=O)Cn3cc(C(=O)NC(=O)OCC)c(=O)[nH]c3=O)CC2)c(=O)[nH]c1=O here?
**A.** > 100 µM

**Q.** For O=S(=O)(N/N=C/c1ccc(/C=N/NS(=O)(=O)c2ccccc2)cc1)c1ccccc1, which TGI is on record?
**A.** > 100 µM

**Q.** Which TGI does the source give for CC[C@@H]1OC2(C)CC(S(=O)(=O)c3ccccc3O)CC1O2 (stereo not given in full) here?
**A.** > 100 µM

**Q.** Which results are given for CCOC(=O)C(N)C[S][Sn]([CH3])([CH3])[Cl] (stereo not given)?
**A.** GI50: > 100 µM; TGI: > 100 µM

**Q.** NNC(=O)/C(=C/c1ccc(Cl)c(Cl)c1)NC(=O)c1ccccc1 was tested. Which TGI did it give?
**A.** > 100 µM

**Q.** For COc1ccc([N+](=O)[O-])c2c(NCCCN(C)C)c3ccccc3nc12, which TGI is on record?
**A.** 0.399 µM

**Q.** For CC(=O)OCC1OC(N2C(=O)C(=O)c3cc(C)ccc32)C(OC(C)=O)C(OC(C)=O)C1OC(C)=O (stereo not given), which TGI is on record?
**A.** > 100 µM

**Q.** How did the TGI turn out when O=C1c2ccccc2-c2cccc3ccc(Cc4ccc5ccccc5c4)c1c23 was run?
**A.** > 100 µM

**Q.** For Cc1cc(C)c([O-])c(CN(C)CCN(C)Cc2cc(C)cc(C)c2[O-])c1.O=C([O-])c1cccc(C(=O)[O-])n1.[Ti+4], which GI50 is on record?
**A.** 2.92 µM

**Q.** And the TGI?
**A.** 8.47 µM

**Q.** Which results are given for CCOC(=O)C(Cc1c[nH]c2ccc(N)cc12)(NC(C)=O)C(=O)OCC?
**A.** GI50: > 1000 µM; TGI: > 1000 µM

**Q.** Which TGI does the source give for COc1cc(Cl)c2c3c(c(C(C)=O)oc13)CCC2 here?
**A.** > 100 µM

**Q.** With Nc1ccc(N(S(=O)(=O)c2ccccc2)S(=O)(=O)c2ccccc2)c(Cl)c1 as the molecule, how does the TGI read?
**A.** > 100 µM

**Q.** Which TGI does the source give for CCCCc1c2c(nc3c1CCC/C3=C\c1ccccc1)C(=O)CCC2 here?
**A.** 42 µM

**Q.** For COc1ccc([N+]2=NC(c3ccc([N+](=O)[O-])cc3)=NN(c3ccccc3)C2)cc1, which TGI is on record?
**A.** > 100 µM

**Q.** For C=CC1(C(=O)O)CCC(C(C)(C)C)CC1 (stereo not given), which TGI is on record?
**A.** > 100 µM

**Q.** NC(=O)C(=Cc1ccc(C(O)P(=O)(O)O)cc1)C(N)=O (stereo not given) was tested. Which TGI did it give?
**A.** > 100 µM

**Q.** For CSc1nc(C)c2c(n1)SCC2, which TGI is on record?
**A.** > 10 µM

**Q.** With CCC1(CC)C(=O)OC(=O)C1(CC)CC as the molecule, how does the TGI read?
**A.** > 100 µM

**Q.** For CC(C)(C#N)c1cc(Cn2cncn2)cc(C(C)(C)C#N)c1, which GI50 is on record?
**A.** 921 µM

**Q.** What about the TGI of the same molecule?
**A.** > 10000 µM

**Q.** With C=CCC(N[C@H](CO)c1ccccc1)c1ccc2ccccc2n1 (stereo not given in full) as the molecule, how does the GI50 read?
**A.** > 100 µM

**Q.** And the TGI?
**A.** > 100 µM

**Q.** Which TGI does the source give for O=C(Nc1cc(Cl)c(Cl)cc1Cl)C(=O)C1C=CCS1(=O)=O (stereo not given) here?
**A.** > 100 µM

**Q.** With CCNC(=O)CCN(C(=O)O)S(=O)(=O)c1ccc(NC(=O)c2ccccc2)cc1 as the molecule, how does the TGI read?
**A.** > 100 µM

**Q.** With O=C(/C=C/c1ccc([N+](=O)[O-])o1)N1CCN(Cc2ccccc2)CC1 as the molecule, how does the TGI read?
**A.** 34.6 µM

**Q.** How did the TGI turn out when CC1C[C@@]2(c3ccccc3)C(=O)CCC[C@H]2N1 (stereo not given in full) was run?
**A.** > 100 µM

**Q.** With O=[N+]([O-])c1cccc(/C=N\NS(=O)(=O)c2ccc(Cl)cc2)c1O as the molecule, how does the TGI read?
**A.** > 100 µM

**Q.** With CC(C)c1ccc(C(=O)Nc2nc3ccc(O)cc3s2)cc1 as the molecule, how does the GI50 read?
**A.** 1.74 µM

**Q.** What about the TGI of the same molecule?
**A.** > 100 µM

**Q.** For CC1=C(C(=O)Nc2ccccc2C)C(c2ccc(Cl)c(Cl)c2)C(C(=O)Nc2ccccc2C)=C(C)N1, which TGI is on record?
**A.** 66.5 µM

**Q.** With CCCCOC(=O)NC(=O)c1cn(CCCOC(=O)CCCCCCCCC(=O)OCCCn2cc(C(=O)NC(=O)OCCCC)c(=O)[nH]c2=O)c(=O)[nH]c1=O as the molecule, how does the TGI read?
**A.** > 100 µM

**Q.** Which TGI does the source give for Cc1[nH]c2ccccc2c1C1Cc2ccccc2N1C(=O)/C=C\C(=O)O (stereo not given) here?
**A.** > 100 µM

Tested on: MOLT-4 leukemia
Test: DTP human tumour cell line panel, 48 h

**Q.** COc1cc(/C=C/C(=O)CC(=O)/C=C/c2cc(OC)c(OC)c(OC)c2)cc(OC)c1OC was tested. Which GI50 did it give?
**A.** 2.98 µM

**Q.** What about the TGI of the same molecule?
**A.** > 100 µM

**Q.** Which TGI does the source give for c1ccc2c(c1)CCC/C2=N\OCC1CO1 (stereo not given) here?
**A.** > 100 µM

**Q.** With CC/C(C)=C1\CCC(CN2CCOCC2)C1=O (stereo not given) as the molecule, how does the TGI read?
**A.** > 100 µM
